In patent US20140135357A1, “DOSE REGIME FOR CAMPTOTHECIN DERIVATIVES” (Taiwan Liposome Company, Ltd., priority 2012, published 2014):

Assay: Phase I clinical trial: pharmacokinetic analysis of TLC388HCl diastereomers and metabolites after IV infusion
Details: for difference between PK profiles on Day 1 and Day 8: Cycle 1; for half-life: plasma, after IV administration of TLC388HCl composition
[1] = Day 1, dose group 1.5 mg/m^2 TLC388HCl, Mean (SD)
[2] = Day 1, dose group 3.0 mg/m^2 TLC388HCl, Mean (SD)
[3] = Day 1, dose group 6.0 mg/m^2 TLC388HCl, Mean (SD)
[4] = Day 1, dose group 9.0 mg/m^2 TLC388HCl, Mean (SD)
[5] = Day 1, dose group 20.0 mg/m^2 TLC388HCl, Mean (SD)
[6] = Day 1, dose group 30.0 mg/m^2 TLC388HCl, Mean (SD)
[7] = Day 1, dose group 35.0 mg/m^2 TLC388HCl, Mean (SD)
[8] = Day 1, dose group 40.0 mg/m^2 TLC388HCl, Mean (SD)
[9] = Day 1, dose group 50.0 mg/m^2 TLC388HCl, Mean (SD)
[10] = Day 1, dose group 60.0 mg/m^2 TLC388HCl, Mean (SD)
[11] = Day 8, dose group 1.5 mg/m^2 TLC388HCl, Mean (SD)
[12] = Day 8, dose group 3.0 mg/m^2 TLC388HCl, Mean (SD)
[13] = Day 8, dose group 6.0 mg/m^2 TLC388HCl, Mean (SD)
[14] = Day 8, dose group 9.0 mg/m^2 TLC388HCl, Mean (SD)
[15] = Day 8, dose group 20.0 mg/m^2 TLC388HCl, Mean (SD)
[16] = Day 8, dose group 30.0 mg/m^2 TLC388HCl, Mean (SD)
[17] = Day 8, dose group 35.0 mg/m^2 TLC388HCl, Mean (SD)
[18] = Day 8, dose group 40.0 mg/m^2 TLC388HCl, Mean (SD)
[19] = Day 8, dose group 50.0 mg/m^2 TLC388HCl, Mean (SD)
[20] = Day 8, dose group 60.0 mg/m^2 TLC388HCl, Mean (SD)
[21] = patients treated with 60 mg/m^2 of TLC388HCl (N = 6)

Method: A non-randomized phase I clinical trial was conducted at 4 institutions in the US and Taiwan.
Patients were included in this trial if they are over the age of 18, with advanced cancer and the ECOG performance status is 0 or 1. […] Patients were excluded from the study if they have previously received more than 3 regimens of chemotherapy, or if they have received chemotherapy or radiotherapy within 4 weeks of the trial recruitment.
Eligible patients were given the pharmaceutical composition of the present invention, comprising a mixture of TLC388HCl and mPEG2000-DSPE in a molar ratio of 1:0.7 to 1:0.9 (known as Lipotecan®). […] The pharmaceutical composition was administered as a 30-min IV infusion, on days 1, 8, and 15 of a 28-day cycle (i.e. 3 IV infusions per 28-day cycle).
Serum samples were collected from the patients for pharmacokinetic analysis on day 1, day 8 and day 15 of Cycles 1 and 2, at the following times:
Post IV infusion: (Day 1 and 8 of Cycle 1): 33 min; 40 min; 50 min; 1 h; 1 h 30 min; 2 h; 4 h and 8 h. Post IV infusion (Day 15 of Cycle 1 and Day 1, 8, and 15 of Cycle 2): 4 h. Patients were assessed every 8 weeks, after 2 cycles of treatments.
During the 2-cycle study period, the patients were examined regularly for the following outcomes: • Side effect/DLT; • The pK profiles of the (S,S) and (S,R) diastereomers of TLC388HCl, its 3 metabolites (TLC-U1, TLC-U2 and Topotecan) on day 1 and day 8 of the treatment cycle; and • Anti-cancer efficacy.

CCC1(OC(=O)C(C)ON=C2c3cc([N+](=O)[O-])cc([N+](=O)[O-])c3-c3c2cc([N+](=O)[O-])cc3[N+](=O)[O-])C(=O)OCc2c1cc1n(c2=O)Cc2cc3c(CN(C)C)c(O)ccc3nc2-1.Cl (stereo not drawn) [S,R TLC388HCl]
difference between PK profiles on Day 1 and Day 8: no significant difference
AUC0-t [1]: 1.646 ng·h/mL
Cmax [1]: 3.188 ng/mL
Tmax [1]: 0.606 (0.106) hr
t1/2 [1]: 2.603 (3.591) hr
AUC0-t [2]: 4.728 ng·h/mL
Cmax [2]: 2.743 ng/mL
Tmax [2]: 0.933 (0.936) hr
AUC0-t [3]: 1.564 ng·h/mL
Cmax [3]: 4.073 ng/mL
Tmax [3]: 0.467 (0.209) hr
AUC0-t [4]: 0.821 ng·h/mL
Cmax [4]: 2.196 ng/mL
Tmax [4]: 0.354 (0.209) hr
t1/2 [4]: 0.197 (0.218) hr
AUC0-t [5]: 8.671 ng·h/mL
Cmax [5]: 29.303 ng/mL
Tmax [5]: 0.250 (0.000) hr
t1/2 [5]: 2.828 (4.510) hr
AUC0-t [6]: 3.624 ng·h/mL
Cmax [6]: 12.930 ng/mL
Tmax [6]: 0.396 (0.292) hr
t1/2 [6]: 0.258 (0.271) hr
AUC0-t [7]: 138.61 ng·h/mL
Cmax [7]: 263.58 ng/mL
Tmax [7]: 0.709 (0.083) hr
t1/2 [7]: 3.030 (1.537) hr
AUC0-t [8]: 10.818 ng·h/mL
Cmax [8]: 28.259 ng/mL
Tmax [8]: 0.415 (0.152) hr
t1/2 [8]: 0.460 (0.772) hr
AUC0-t [9]: 14.387 ng·h/mL
Cmax [9]: 43.180 ng/mL
Tmax [9]: 0.403 (0.143) hr
t1/2 [9]: 0.483 (0.334) hr
AUC0-t [10]: 11.285 ng·h/mL
Cmax [10]: 63.194 ng/mL
Tmax [10]: 0.357 (0.148) hr
t1/2 [10]: 0.639 (0.425) hr
AUC0-t [11]: 0.449 ng·h/mL
Cmax [11]: 0.916 ng/mL
Tmax [11]: 0.489 (0.215) hr
t1/2 [11]: 0.087 h
AUC0-t [12]: 0.574 ng·h/mL
Cmax [12]: 1.811 ng/mL
Tmax [12]: 0.350 (0.173) hr
t1/2 [12]: 0.050 (0.008) hr
AUC0-t [13]: 2.190 ng·h/mL
Cmax [13]: 8.287 ng/mL
Tmax [13]: 0.467 (0.209) hr
t1/2 [13]: 0.072 h
AUC0-t [14]: 5.396 ng·h/mL
Cmax [14]: 3.325 ng/mL
Tmax [14]: 2.408 (3.729) hr
t1/2 [14]: 0.133 (0.084) hr
AUC0-t [15]: 4.707 ng·h/mL
Cmax [15]: 15.753 ng/mL
Tmax [15]: 0.328 (0.135) hr
t1/2 [15]: 0.115 (0.064) hr
AUC0-t [16]: 18.892 ng·h/mL
Cmax [16]: 38.413 ng/mL
Tmax [16]: 0.512 (0.240) hr
t1/2 [16]: 0.202 (0.242) hr
AUC0-t [17]: 139.26 ng·h/mL
Cmax [17]: 403.60 ng/mL
Tmax [17]: 0.621 (0.141) hr
t1/2 [17]: 3.329 (2.590) hr
AUC0-t [18]: 34.254 ng·h/mL
Cmax [18]: 76.660 ng/mL
Tmax [18]: 0.303 (0.113) hr
t1/2 [18]: 0.411 (0.676) hr
AUC0-t [19]: 39.251 ng·h/mL
Cmax [19]: 97.288 ng/mL
Tmax [19]: 0.297 (0.104) hr
t1/2 [19]: 0.764 (1.045) hr
AUC0-t [20]: 13.377 ng·h/mL
Cmax [20]: 47.340 ng/mL
Tmax [20]: 0.450 (0.115) hr
t1/2 [20]: 1.416 (1.169) hr
Dose-normalized AUClast [21]: 0.82 ± 1.92 nM*h/(mg/m^2)
Dose-normalized Cmax [21]: 1.63 ± 3.77 nM/(mg/m^2)
Tmax [21]: 0.47 ± 0.30 h
t1/2 [21]: 1.08 ± 1.77 h
half-life: a few minutes

CCC1(OC(=O)C(C)ON=C2c3cc([N+](=O)[O-])cc([N+](=O)[O-])c3-c3c2cc([N+](=O)[O-])cc3[N+](=O)[O-])C(=O)OCc2c1cc1n(c2=O)Cc2cc3c(CN(C)C)c(O)ccc3nc2-1.Cl (stereo not drawn) [S,S TLC388HCl]
difference between PK profiles on Day 1 and Day 8: no significant difference
AUC0-t [1]: 2.190 ng·h/mL
Cmax [1]: 4.492 ng/mL
Tmax [1]: 0.606 (0.106) hr
t1/2 [1]: 2.792 (3.856) hr
AUC0-t [2]: 6.136 ng·h/mL
Cmax [2]: 3.857 ng/mL
Tmax [2]: 0.933 (0.936) hr
AUC0-t [3]: 1.866 ng·h/mL
Cmax [3]: 5.763 ng/mL
Tmax [3]: 0.467 (0.209) hr
AUC0-t [4]: 1.141 ng·h/mL
Cmax [4]: 2.985 ng/mL
Tmax [4]: 0.429 (0.212) hr
t1/2 [4]: 0.074 (0.033) hr
AUC0-t [5]: 14.699 ng·h/mL
Cmax [5]: 51.193 ng/mL
Tmax [5]: 0.250 (0.000) hr
t1/2 [5]: 0.432 (0.260) hr
AUC0-t [6]: 5.227 ng·h/mL
Cmax [6]: 18.623 ng/mL
Tmax [6]: 0.454 (0.276) hr
t1/2 [6]: 0.160 (0.034) hr
AUC0-t [7]: 212.19 ng·h/mL
Cmax [7]: 417.03 ng/mL
Tmax [7]: 0.679 (0.116) hr
t1/2 [7]: 2.221 (0.789) hr
AUC0-t [8]: 17.287 ng·h/mL
Cmax [8]: 47.220 ng/mL
Tmax [8]: 0.415 (0.152) hr
t1/2 [8]: 0.457 (0.812) hr
AUC0-t [9]: 23.967 ng·h/mL
Cmax [9]: 76.840 ng/mL
Tmax [9]: 0.403 (0.143) hr
t1/2 [9]: 0.218 (0.075) hr
AUC0-t [10]: 18.196 ng·h/mL
Cmax [10]: 103.16 ng/mL
Tmax [10]: 0.357 (0.148) hr
t1/2 [10]: 0.546 (0.353) hr
AUC0-t [11]: 0.608 ng·h/mL
Cmax [11]: 1.297 ng/mL
Tmax [11]: 0.489 (0.215) hr
t1/2 [11]: 0.093 h
AUC0-t [12]: 0.852 ng·h/mL
Cmax [12]: 2.902 ng/mL
Tmax [12]: 0.350 (0.173) hr
AUC0-t [13]: 3.152 ng·h/mL
Cmax [13]: 12.160 ng/mL
Tmax [13]: 0.467 (0.209) hr
t1/2 [13]: 0.045 h
AUC0-t [14]: 7.000 ng·h/mL
Cmax [14]: 4.776 ng/mL
Tmax [14]: 2.408 (3.729) hr
t1/2 [14]: 0.195 h
AUC0-t [15]: 7.369 ng·h/mL
Cmax [15]: 24.533 ng/mL
Tmax [15]: 0.328 (0.135) hr
t1/2 [15]: 0.509 (0.731) hr
AUC0-t [16]: 28.454 ng·h/mL
Cmax [16]: 58.903 ng/mL
Tmax [16]: 0.587 (0.167) hr
t1/2 [16]: 0.114 (0.061) hr
AUC0-t [17]: 208.58 ng·h/mL
Cmax [17]: 616.50 ng/mL
Tmax [17]: 0.621 (0.141) hr
t1/2 [17]: 4.009 (1.684) hr
AUC0-t [18]: 58.170 ng·h/mL
Cmax [18]: 127.39 ng/mL
Tmax [18]: 0.303 (0.113) hr
t1/2 [18]: 0.429 (0.687) hr
AUC0-t [19]: 58.594 ng·h/mL
Cmax [19]: 150.12 ng/mL
Tmax [19]: 0.297 (0.104) hr
t1/2 [19]: 0.817 (1.200) hr
AUC0-t [20]: 24.500 ng·h/mL
Cmax [20]: 87.780 ng/mL
Tmax [20]: 0.403 (0.143) hr
t1/2 [20]: 0.971 (0.667) hr
Cmax and AUC compared with S,R-TLC388HCl (at all dose levels): higher than those of S,R-TLC388HCl
Dose-normalized AUClast [21]: 1.22 ± 2.87 nM*h/(mg/m^2)
Dose-normalized Cmax [21]: 2.60 ± 6.02 nM/(mg/m^2)
Tmax [21]: 0.47 ± 0.3 h
t1/2 [21]: 0.75 ± 1.18 h
half-life: a few minutes
